In brackets after ≈: the same amount, converted by molar mass. Read-outs that look alike come from different tables or passages of the source.
How the values were obtained:
Bacillus cereus 246 = assay: microbe, parasite or virus in culture; type: cell-based; settings: 37° C., 24 h, read-out: Minimum Inhibitory Concentration, MIC
MRSA 2152 = assay: Antibacterial studies in vivo, survival of mice infected with MRSA 2152; settings: dose mg/kg: ciprofloxacin 20, 3: 30, 7: 40, 21: 50, 33: 25, 70: 70; for Survival rate (%) (life prolongation rate): (survival days of test group − blank group)/blank group ×100%, MRSA 2152 mice, tail vein; for Survival: mice inoculated intraperitoneally with MRSA 2152, test compound by tail vein, repeated after six hours, saline 1.3 days
[1] = tested on: Enterococcus fecal F631 (VRE); assay: organism not typed; type: cell-based; settings: 24 h, read-out: Minimum Inhibitory Concentration, MIC
[2] = tested on: Enterococcus faecalis F2518 (VRE); assay: microbe, parasite or virus in culture; type: cell-based; settings: 24 h, read-out: Minimum Inhibitory Concentration, MIC
MIC broth microdilution = type: cell-based; settings: Microorganism 33, Dermatophytosis; 37° C., 24 h; read-out: Minimum Inhibitory Concentration, MIC
Oral candidiasis = assay: MIC broth microdilution; type: cell-based; settings: Microorganism 32, Oral candidiasis; 37° C., 24 h; read-out: Minimum Inhibitory Concentration, MIC
[3] = tested on: Staphylococcus aureus 43300 (MRSA); assay: microbe, parasite or virus in culture; type: cell-based; settings: 24 h, read-out: Minimum Inhibitory Concentration, MIC
[4] = tested on: Corynebacterium diphtheriae; assay: microbe, parasite or virus in culture; type: cell-based; settings: 37° C., 24 h, read-out: Minimum Inhibitory Concentration, MIC
[5] = tested on: Streptococcus bovis 10035; assay: microbe, parasite or virus in culture; type: cell-based; settings: Streptococcus equinus, 37° C., 24 h, read-out: Minimum Inhibitory Concentration, MIC
[6] = tested on: Enterococcus faecalis 51299; assay: microbe, parasite or virus in culture; type: cell-based; settings: Enterococcus faecalis, 51299, 24 h, read-out: Minimum Inhibitory Concentration, MIC
Bacillus anthracis 1 = assay: microbe, parasite or virus in culture; type: cell-based; settings: Bacillus anthracis, 1, 24 h, read-out: Minimum Inhibitory Concentration, MIC
[7] = tested on: Streptococcus pneumoniae 6303 (PRSP); assay: microbe, parasite or virus in culture; type: cell-based; settings: 24 h, read-out: Minimum Inhibitory Concentration, MIC
[8] = tested on: Enterococcus faecalis 29212; assay: microbe, parasite or virus in culture; type: cell-based; settings: 37° C., 24 h, read-out: Minimum Inhibitory Concentration, MIC
[9] = tested on: Staphylococcus aureus 704 (MRSA); assay: microbe, parasite or virus in culture; type: cell-based; settings: 24 h, read-out: Minimum Inhibitory Concentration, MIC
[10] = tested on: Enterococcus faecalis 19433; assay: microbe, parasite or virus in culture; type: cell-based; settings: 37° C., 24 h, read-out: Minimum Inhibitory Concentration, MIC
Clostridium perfringens = assay: microbe, parasite or virus in culture; type: cell-based; settings: 24 h, read-out: Minimum Inhibitory Concentration, MIC
Bacillus subtilis 82 = assay: microbe, parasite or virus in culture; type: cell-based; settings: 37° C., 24 h, read-out: Minimum Inhibitory Concentration, MIC
[11] = tested on: Staphylococcus aureus 29231; assay: microbe, parasite or virus in culture; type: cell-based; settings: 37° C., 24 h, read-out: Minimum Inhibitory Concentration, MIC
Pyogenic Streptococcus = assay: microbe, parasite or virus in culture; type: cell-based; settings: 37° C., 24 h, read-out: Minimum Inhibitory Concentration, MIC
Gram-positive Bacteria = type: cell-based; settings: Enterococcus faecalis (VRE), Staphylococcus aureus (MRSA), Streptococcus pneumoniae 6303 (PRSP); Bacillus cereus, Bacillus subtilis, Enterococcus faecalis, Staphylococcus aureus, Streptococcus pneumoniae, Streptococcus agalactiae B and streptococci 4
[12] = tested on: Streptococcus pneumoniae M2; assay: microbe, parasite or virus in culture; type: cell-based; settings: 37° C., 24 h, read-out: Minimum Inhibitory Concentration, MIC
green Streptococcus 1009 = assay: microbe, parasite or virus in culture; type: cell-based; settings: 37° C., 24 h, read-out: Minimum Inhibitory Concentration, MIC
[13] = tested on: Staphylococcus aureus 705 (MRSA); assay: microbe, parasite or virus in culture; type: cell-based; settings: 24 h, read-out: Minimum Inhibitory Concentration, MIC
Streptococcus 10342 = assay: MIC broth microdilution; type: cell-based; settings: 37° C., 24 h, read-out: Minimum Inhibitory Concentration, MIC
Bacillus cereus 2 = assay: microbe, parasite or virus in culture; type: cell-based; settings: 37° C., 24 h, read-out: Minimum Inhibitory Concentration, MIC
[14] = tested on: Streptococcus pneumoniae 6301; assay: microbe, parasite or virus in culture; type: cell-based; settings: 37° C., 24 h, read-out: Minimum Inhibitory Concentration, MIC
[15] = tested on: Staphylococcus aureus 703 (MRSA); assay: microbe, parasite or virus in culture; type: cell-based; settings: 24 h, read-out: Minimum Inhibitory Concentration, MIC
Clostridium tetani = assay: microbe, parasite or virus in culture; type: cell-based; settings: 24 h
[16] = tested on: Streptococcus agalactiae B; assay: microbe, parasite or virus in culture; type: cell-based; settings: 37° C., 24 h, read-out: Minimum Inhibitory Concentration, MIC
Bacillus subtilis 168 = assay: microbe, parasite or virus in culture; type: cell-based; settings: 37° C., 24 h, read-out: Minimum Inhibitory Concentration, MIC
[17] = tested on: Enterococcus faecalis 1513 (VRE); assay: microbe, parasite or virus in culture; type: cell-based; settings: 24 h, read-out: Minimum Inhibitory Concentration, MIC
[18] = tested on: Streptococcus pneumoniae 10351; assay: microbe, parasite or virus in culture; type: cell-based; settings: 37° C., 24 h, read-out: Minimum Inhibitory Concentration, MIC
[19] = tested on: Enterococcus faecalis 583 (VRE); assay: microbe, parasite or virus in culture; type: cell-based; settings: 24 h, read-out: Minimum Inhibitory Concentration, MIC
[20] = tested on: Streptococcus pneumoniae 62; assay: microbe, parasite or virus in culture; type: cell-based; settings: 37° C., 24 h, read-out: Minimum Inhibitory Concentration, MIC
[21] = read-out: Minimum Inhibitory Concentration, MIC, Microorganism 29, Clostridium tetani, 37° C.
[22] = read-out: Minimum Inhibitory Concentration, MIC, Microorganism 30, Clostridium tetani (second line of that name), 37° C.

Question: What does the source list for `Cc1nn2c(=O)cc(-c3ccc(C#N)cc3)[nH]c2c1-c1ccc(C(F)(F)F)cc1` [Compound 3]?
Answer: MIC (Bacillus cereus 246): 0.53 µM (≈ 0.209 µg/mL); Survival rate (%) (life prolongation rate) (MRSA 2152): 216.8%; Survival (MRSA 2152): 4.3 days; MIC [1]: 0.33 µM (≈ 0.13 µg/mL); MIC [2]: 0.48 µM (≈ 0.189 µg/mL); MIC (MIC broth microdilution): 59.1 µM (≈ 23.3 µg/mL); MIC (Oral candidiasis): 53.1 µM (≈ 20.9 µg/mL); MIC [3]: 0.36 µM (≈ 0.142 µg/mL); MIC [4]: 62.1 µM (≈ 24.5 µg/mL); MIC [5]: 2.01 µM (≈ 0.793 µg/mL); MIC [6]: 0.55 µM (≈ 0.217 µg/mL); MIC (Bacillus anthracis 1): 25.6 µM (≈ 10.1 µg/mL); MIC [7]: 0.32 µM (≈ 0.126 µg/mL); MIC [8]: 0.23 µM (≈ 0.0907 µg/mL); MIC [9]: 0.63 µM (≈ 0.248 µg/mL); MIC [10]: 0.42 µM (≈ 0.166 µg/mL); MIC (Clostridium perfringens): 55.3 µM (≈ 21.8 µg/mL); MIC (Bacillus subtilis 82): 5 µM (≈ 1.97 µg/mL); MIC [11]: 0.22 µM (≈ 0.0868 µg/mL); MIC (Pyogenic Streptococcus): 0.12 µM (≈ 0.0473 µg/mL); inhibition of growth (conclusion from MICs) (Gram-positive Bacteria): significantly inhibited the growth; MIC [12]: 0.04 µM (≈ 0.0158 µg/mL); MIC (green Streptococcus 1009): 0.31 µM (≈ 0.122 µg/mL); MIC [13]: 0.46 µM (≈ 0.181 µg/mL); MIC (Streptococcus 10342): 1.33 µM (≈ 0.524 µg/mL); MIC (Bacillus cereus 2): 2.5 µM (≈ 0.986 µg/mL); MIC [14]: 0.3 µM (≈ 0.118 µg/mL); MIC [15]: 1.25 µM (≈ 0.493 µg/mL); MIC (Clostridium tetani; [21]): 50.3 µM (≈ 19.8 µg/mL); MIC (Clostridium tetani; [22]): 23.2 µM (≈ 9.15 µg/mL); MIC [16]: 0.16 µM (≈ 0.0631 µg/mL); MIC (Bacillus subtilis 168): 2.5 µM (≈ 0.986 µg/mL); MIC [17]: 1.3 µM (≈ 0.513 µg/mL); MIC [18]: 1.25 µM (≈ 0.493 µg/mL); MIC [19]: 0.63 µM (≈ 0.248 µg/mL); MIC [20]: 10.5 µM (≈ 4.14 µg/mL)

Question: What does the source list for `Cc1nn2c(=O)cc(-c3ccc(C(F)(F)F)cc3)[nH]c2c1-c1ccc(Cl)cc1Cl` [Compound 7]?
Answer: MIC (Bacillus cereus 246): 1.25 µM (≈ 0.548 µg/mL); Survival rate (%) (life prolongation rate) (MRSA 2152): 330.7%; Survival (MRSA 2152): 5.6 days; MIC [1]: 0.63 µM (≈ 0.276 µg/mL); MIC [2]: 0.23 µM (≈ 0.101 µg/mL); MIC (MIC broth microdilution): 36.5 µM (≈ 16 µg/mL); MIC (Oral candidiasis): 35.6 µM (≈ 15.6 µg/mL); MIC [3]: 2.5 µM (≈ 1.1 µg/mL); MIC [4]: 71.2 µM (≈ 31.2 µg/mL); MIC [5]: 2.25 µM (≈ 0.986 µg/mL); MIC [6]: 2.5 µM (≈ 1.1 µg/mL); MIC (Bacillus anthracis 1): 80.3 µM (≈ 35.2 µg/mL); MIC [7]: 0.21 µM (≈ 0.092 µg/mL); MIC [8]: 0.31 µM (≈ 0.136 µg/mL); MIC [9]: 0.32 µM (≈ 0.14 µg/mL); MIC [10]: 0.61 µM (≈ 0.267 µg/mL); MIC (Clostridium perfringens): 50.2 µM (≈ 22 µg/mL); MIC (Bacillus subtilis 82): 0.02 µM (≈ 0.00876 µg/mL); MIC [11]: 5 µM (≈ 2.19 µg/mL); MIC (Pyogenic Streptococcus): 2.5 µM (≈ 1.1 µg/mL); inhibition of growth (conclusion from MICs) (Gram-positive Bacteria): significantly inhibited the growth; MIC [12]: 2.5 µM (≈ 1.1 µg/mL); MIC (green Streptococcus 1009): 1.35 µM (≈ 0.592 µg/mL); MIC [13]: 0.55 µM (≈ 0.241 µg/mL); MIC (Streptococcus 10342): 0.25 µM (≈ 0.11 µg/mL); MIC (Bacillus cereus 2): 0.63 µM (≈ 0.276 µg/mL); MIC [14]: 5 µM (≈ 2.19 µg/mL); MIC [15]: 2.5 µM (≈ 1.1 µg/mL); MIC (Clostridium tetani; [21]): 50.3 µM (≈ 22 µg/mL); MIC (Clostridium tetani; [22]): 22.1 µM (≈ 9.69 µg/mL); MIC [16]: 0.22 µM (≈ 0.0964 µg/mL); MIC (Bacillus subtilis 168): 0.22 µM (≈ 0.0964 µg/mL); MIC [17]: 0.65 µM (≈ 0.285 µg/mL); MIC [18]: 1.25 µM (≈ 0.548 µg/mL); MIC [19]: 0.3 µM (≈ 0.131 µg/mL); MIC [20]: 0.19 µM (≈ 0.0833 µg/mL)

From patent US20120178915A1, “PYRIMIDINE DERIVATIVES AND ANALOGS, PREPARATION METHOD AND USE THEREOF” (priority 2009, published 2012)
